According to PubChem BioAssay (NCI):
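Growth conditions: 96-well plates. Treatment: test compound, 48 hours, 5 concentrations. Analysis: linear interpolation between bracketing concentrations; unreached endpoints set to highest concentration. GI50: concentration for 50% inhibition of growth. TGI denotes the concentration required for complete inhibition of growth.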

Assays:
Experiment in all cases: NCI tumour cell line growth inhibition, 48 h
SK-MEL-2 melanoma = test system: SK-MEL-2 melanoma
RPMI-8226 leukemia = test system: RPMI-8226 leukemia
A498 renal = test system: A498 renal
LOX IMVI melanoma = test system: LOX IMVI melanoma
CCRF-CEM leukemia = test system: CCRF-CEM leukemia
786-0 renal = test system: 786-0 renal
SK-OV-3 ovarian = test system: SK-OV-3 ovarian
U251 CNS = test system: U251 CNS
SK-MEL-5 melanoma = test system: SK-MEL-5 melanoma
HS 578T breast = test system: HS 578T breast
UACC-62 melanoma = test system: UACC-62 melanoma
NCI-H460 lung = test system: NCI-H460 lung
NCI-H522 lung = test system: NCI-H522 lung
HOP-92 NSCLC = test system: HOP-92 NSCLC
HCC-2998 colon = test system: HCC-2998 colon
TK-10 renal = test system: TK-10 renal
DU-145 prostate = test system: DU-145 prostate
SN12C renal = test system: SN12C renal
COLO 205 colon = test system: COLO 205 colon
BT-549 breast = test system: BT-549 breast
NCI/ADR-RES ovarian = test system: NCI/ADR-RES ovarian
SF-295 CNS = test system: SF-295 CNS
PC-3 prostate = test system: PC-3 prostate
T-47D breast = test system: T-47D breast
ACHN renal = test system: ACHN renal
HCT-15 colon = test system: HCT-15 colon
OVCAR-3 ovarian = test system: OVCAR-3 ovarian
MCF7 breast = test system: MCF7 breast
CAKI-1 renal = test system: CAKI-1 renal
SNB-19 CNS = test system: SNB-19 CNS
NCI-H226 lung = test system: NCI-H226 lung
KM12 colon = test system: KM12 colon
NCI-H23 lung = test system: NCI-H23 lung
UO-31 renal = test system: UO-31 renal
SF-268 CNS = test system: SF-268 CNS
MALME-3M melanoma = test system: MALME-3M melanoma
MDA-MB-231 breast = test system: MDA-MB-231 breast
HL-60(TB) leukemia = test system: HL-60(TB) leukemia
UACC-257 melanoma = test system: UACC-257 melanoma
IGROV1 ovarian = test system: IGROV1 ovarian
M14 melanoma = test system: M14 melanoma
K-562 leukemia = test system: K-562 leukemia
A549 NSCLC = test system: A549 NSCLC
EKVX NSCLC = test system: EKVX NSCLC
SF-539 CNS = test system: SF-539 CNS
HOP-62 NSCLC = test system: HOP-62 NSCLC
OVCAR-8 ovarian = test system: OVCAR-8 ovarian
OVCAR-5 ovarian = test system: OVCAR-5 ovarian
HCT-116 colon = test system: HCT-116 colon
RXF 393 renal = test system: RXF 393 renal
MDA-MB-435 = test system: MDA-MB-435
SW-620 colon = test system: SW-620 colon

O=C(OC(CNc1c(C(=O)c2ccccc2)c(=O)n(Cc2ccccc2)c(=O)n1Cc1ccccc1)CN1CCOCC1)c1ccccc1 (centres undefined)
GI50 (SK-MEL-2 melanoma): 56.7 µM | TGI (SK-MEL-2 melanoma): > 100 µM | GI50 (RPMI-8226 leukemia): 26.8 µM | TGI (RPMI-8226 leukemia): 82.8 µM | GI50 (A498 renal): 37.4 µM | TGI (A498 renal): > 100 µM | GI50 (LOX IMVI melanoma): 59 µM | TGI (LOX IMVI melanoma): > 100 µM | GI50 (CCRF-CEM leukemia): 33.9 µM | TGI (CCRF-CEM leukemia): > 100 µM | GI50 (786-0 renal): 70.4 µM | TGI (786-0 renal): > 100 µM | GI50 (SK-OV-3 ovarian): > 100 µM | TGI (SK-OV-3 ovarian): > 100 µM | GI50 (U251 CNS): 42.3 µM | TGI (U251 CNS): > 100 µM | GI50 (SK-MEL-5 melanoma): 37.7 µM | TGI (SK-MEL-5 melanoma): > 100 µM | GI50 (HS 578T breast): 40.2 µM | TGI (HS 578T breast): > 100 µM | GI50 (UACC-62 melanoma): 38.8 µM | TGI (UACC-62 melanoma): > 100 µM | GI50 (NCI-H460 lung): 46.2 µM | TGI (NCI-H460 lung): > 100 µM | GI50 (NCI-H522 lung): 47.2 µM | TGI (NCI-H522 lung): > 100 µM | GI50 (HOP-92 NSCLC): 29.6 µM | TGI (HOP-92 NSCLC): > 100 µM | GI50 (HCC-2998 colon): 47.4 µM | TGI (HCC-2998 colon): > 100 µM | GI50 (TK-10 renal): 69 µM | TGI (TK-10 renal): > 100 µM | GI50 (DU-145 prostate): > 100 µM | TGI (DU-145 prostate): > 100 µM | GI50 (SN12C renal): 50.7 µM | TGI (SN12C renal): > 100 µM | GI50 (COLO 205 colon): 46.3 µM | TGI (COLO 205 colon): > 100 µM | GI50 (BT-549 breast): 41.3 µM | TGI (BT-549 breast): > 100 µM | GI50 (NCI/ADR-RES ovarian): 47.7 µM | TGI (NCI/ADR-RES ovarian): > 100 µM | GI50 (SF-295 CNS): 41.6 µM | TGI (SF-295 CNS): > 100 µM | GI50 (PC-3 prostate): 38.6 µM | TGI (PC-3 prostate): > 100 µM | GI50 (T-47D breast): > 100 µM | TGI (T-47D breast): > 100 µM | GI50 (ACHN renal): 46.8 µM | TGI (ACHN renal): > 100 µM | GI50 (HCT-15 colon): 38.5 µM | TGI (HCT-15 colon): > 100 µM | GI50 (OVCAR-3 ovarian): 34.1 µM | TGI (OVCAR-3 ovarian): > 100 µM | GI50 (MCF7 breast): 48.1 µM | TGI (MCF7 breast): > 100 µM | GI50 (CAKI-1 renal): 34.7 µM | TGI (CAKI-1 renal): > 100 µM | GI50 (SNB-19 CNS): 71.3 µM | TGI (SNB-19 CNS): > 100 µM | GI50 (NCI-H226 lung): 49.9 µM | TGI (NCI-H226 lung): > 100 µM | GI50 (KM12 colon): 42.1 µM | TGI (KM12 colon): > 100 µM | GI50 (NCI-H23 lung): 43.2 µM | TGI (NCI-H23 lung): > 100 µM | GI50 (UO-31 renal): 52.8 µM | TGI (UO-31 renal): > 100 µM | GI50 (SF-268 CNS): > 100 µM | TGI (SF-268 CNS): > 100 µM | GI50 (MALME-3M melanoma): > 100 µM | TGI (MALME-3M melanoma): > 100 µM | GI50 (MDA-MB-231 breast): 42.8 µM | TGI (MDA-MB-231 breast): > 100 µM | GI50 (HL-60(TB) leukemia): 30.9 µM | TGI (HL-60(TB) leukemia): > 100 µM | GI50 (UACC-257 melanoma): 76.8 µM | TGI (UACC-257 melanoma): > 100 µM | GI50 (IGROV1 ovarian): 65.2 µM | TGI (IGROV1 ovarian): > 100 µM | GI50 (M14 melanoma): 38.4 µM | TGI (M14 melanoma): > 100 µM | GI50 (K-562 leukemia): 32.3 µM | TGI (K-562 leukemia): > 100 µM | GI50 (A549 NSCLC): 49.3 µM | TGI (A549 NSCLC): > 100 µM | GI50 (EKVX NSCLC): 52.9 µM | TGI (EKVX NSCLC): > 100 µM | GI50 (SF-539 CNS): 91.8 µM | TGI (SF-539 CNS): > 100 µM | GI50 (HOP-62 NSCLC): 55.5 µM | TGI (HOP-62 NSCLC): > 100 µM | GI50 (OVCAR-8 ovarian): 64.7 µM | TGI (OVCAR-8 ovarian): > 100 µM | GI50 (OVCAR-5 ovarian): > 100 µM | TGI (OVCAR-5 ovarian): > 100 µM | GI50 (HCT-116 colon): 41.1 µM | TGI (HCT-116 colon): > 100 µM | GI50 (RXF 393 renal): 34.7 µM | TGI (RXF 393 renal): > 100 µM | GI50 (MDA-MB-435): 86.7 µM | TGI (MDA-MB-435): > 100 µM | GI50 (SW-620 colon): 76.4 µM | TGI (SW-620 colon): > 100 µM
